Molecules are shown by their SMILES.

These results are taken from BindingDB's records for doi:10.1021/acs.jmedchem.6b00538 (University of Lille, 2017).

In this assay the target is Fatty-acid amide hydrolase 1 (Rattus norvegicus) (UniProt P97612). The assay can be described thus: Inhibition of Wistar rat brain homogenate FAAH using [3H]AEA as substrate after 10 mins by liquid scintillation counting method.
Chain of Fatty-acid amide hydrolase 1 (Rattus norvegicus) (P97612 whole entry, looked up): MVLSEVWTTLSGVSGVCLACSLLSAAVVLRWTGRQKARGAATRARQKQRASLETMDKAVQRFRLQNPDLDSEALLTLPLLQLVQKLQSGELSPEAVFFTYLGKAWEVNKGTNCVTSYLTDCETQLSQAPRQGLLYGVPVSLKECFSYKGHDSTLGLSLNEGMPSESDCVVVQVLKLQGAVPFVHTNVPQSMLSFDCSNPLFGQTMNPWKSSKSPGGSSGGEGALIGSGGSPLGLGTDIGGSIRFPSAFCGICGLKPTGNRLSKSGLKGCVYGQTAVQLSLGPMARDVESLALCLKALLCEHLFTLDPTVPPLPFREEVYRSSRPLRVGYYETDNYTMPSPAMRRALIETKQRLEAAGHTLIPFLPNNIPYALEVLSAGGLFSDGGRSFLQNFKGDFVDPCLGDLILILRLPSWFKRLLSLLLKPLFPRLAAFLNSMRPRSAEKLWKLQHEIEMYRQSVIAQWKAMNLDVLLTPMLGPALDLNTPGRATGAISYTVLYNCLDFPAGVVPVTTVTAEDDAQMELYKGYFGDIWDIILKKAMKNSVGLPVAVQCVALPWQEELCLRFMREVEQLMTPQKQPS

For the compound `COc1nn(-c2ccc(Oc3ccccc3)cc2C(F)(F)F)c(=O)o1`, the IC50 came to 230 nM.
